According to US20260028365A1 (BIOGEN MA INC., priority 2022, published 2026):

Assays:
[1] = biological target: JH2 domain of human Tyk2 (Homo sapiens (Human), UniProt P29597); experiment: JH2 Biochemical Assay (TR-FRET probe displacement); assay type: binding; conditions: TR-FRET probe displacement, JH2 domain
[2] = biological target: Tyk2 (Homo sapiens (Human), UniProt P29597); experiment: pSTAT4 Cell Assay (MSD, NK92 cells); assay type: cell-based
Chain of Tyk2 (P29597 whole entry): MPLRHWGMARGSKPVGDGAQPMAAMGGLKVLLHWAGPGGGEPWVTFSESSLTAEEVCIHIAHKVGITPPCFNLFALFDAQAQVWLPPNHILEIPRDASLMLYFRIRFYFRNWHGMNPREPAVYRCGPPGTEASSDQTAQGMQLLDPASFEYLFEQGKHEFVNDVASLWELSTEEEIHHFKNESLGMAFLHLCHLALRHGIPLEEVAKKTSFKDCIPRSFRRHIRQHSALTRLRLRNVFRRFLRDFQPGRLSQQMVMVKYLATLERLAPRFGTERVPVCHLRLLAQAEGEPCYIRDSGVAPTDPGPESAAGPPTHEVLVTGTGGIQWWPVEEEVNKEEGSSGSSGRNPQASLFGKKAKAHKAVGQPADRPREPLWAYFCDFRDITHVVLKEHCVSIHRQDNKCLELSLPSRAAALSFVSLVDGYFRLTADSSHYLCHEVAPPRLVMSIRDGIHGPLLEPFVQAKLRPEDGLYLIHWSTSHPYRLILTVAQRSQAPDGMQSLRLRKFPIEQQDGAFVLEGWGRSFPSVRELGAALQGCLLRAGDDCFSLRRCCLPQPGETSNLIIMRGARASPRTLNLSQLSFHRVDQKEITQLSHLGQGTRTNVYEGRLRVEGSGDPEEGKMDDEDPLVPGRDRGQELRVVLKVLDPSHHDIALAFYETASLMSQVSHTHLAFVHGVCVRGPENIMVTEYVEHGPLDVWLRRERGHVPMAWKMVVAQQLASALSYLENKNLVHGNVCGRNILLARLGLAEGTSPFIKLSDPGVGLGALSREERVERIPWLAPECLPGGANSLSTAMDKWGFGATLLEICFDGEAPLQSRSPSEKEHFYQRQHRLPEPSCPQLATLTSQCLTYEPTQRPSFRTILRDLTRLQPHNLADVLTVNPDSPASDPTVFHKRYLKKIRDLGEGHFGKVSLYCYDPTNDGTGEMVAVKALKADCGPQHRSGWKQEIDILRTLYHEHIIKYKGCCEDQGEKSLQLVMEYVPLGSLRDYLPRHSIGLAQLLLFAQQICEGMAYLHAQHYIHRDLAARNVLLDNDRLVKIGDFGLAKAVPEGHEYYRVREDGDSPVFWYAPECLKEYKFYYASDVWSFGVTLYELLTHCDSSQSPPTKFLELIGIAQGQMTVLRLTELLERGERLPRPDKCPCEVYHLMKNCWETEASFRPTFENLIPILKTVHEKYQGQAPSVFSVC

Chain of JH2 domain of human Tyk2 (P29597 575-876): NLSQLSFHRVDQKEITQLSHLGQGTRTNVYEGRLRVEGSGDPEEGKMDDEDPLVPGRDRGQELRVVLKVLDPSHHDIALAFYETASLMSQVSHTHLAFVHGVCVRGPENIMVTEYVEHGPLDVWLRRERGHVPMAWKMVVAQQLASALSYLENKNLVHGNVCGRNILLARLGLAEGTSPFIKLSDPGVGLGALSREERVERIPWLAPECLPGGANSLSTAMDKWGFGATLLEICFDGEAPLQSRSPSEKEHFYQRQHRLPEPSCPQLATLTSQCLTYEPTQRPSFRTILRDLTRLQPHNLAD

Structure (SMILES)	IC50 [1] [nM]	IC50 [2] [nM]
CC(=O)Nc1cc(Nc2cc(C)nc(C(C)(F)F)n2)c(-c2nc(CN(C)C)cs2)cn1 [Example 784, N-(4-((2-(1,1-difluoroethyl)-6-methylpyrimidin-4-yl)amino)-5-(4-((dimethylamino)methyl)thiazol-2-yl)pyridin-2-yl)acetamide]	≤ 10	≤ 10
CC(=O)Nc1cc(Nc2cc(C)nc(C(C)(F)F)n2)c(-c2csc(CN(C)C)n2)cn1 [Example 786, N-(4-((2-(1,1-difluoroethyl)-6-methylpyrimidin-4-yl)amino)-5-(2-((dimethylamino)methyl)thiazol-4-yl)pyridin-2-yl)acetamide]	≤ 10	≤ 10
CC(=O)Nc1cc(Nc2cc(C)nc(C(C)(F)F)n2)c(-c2csc(CN3CCN(C)CC3)n2)cn1 [Example 787, N-(4-((2-(1,1-difluoroethyl)-6-methylpyrimidin-4-yl)amino)-5-(2-((4-methylpiperazin-1-yl)methyl)thiazol-4-yl)pyridin-2-yl)acetamide]	≤ 10	≤ 10
CC(=O)Nc1cc(Nc2ccnc(C(C)(F)F)n2)c(-c2csc(N3CC4(COC4)C3)n2)cn1 [Example 789, N-(5-(2-(2-oxa-6-azaspiro[3.3]heptan-6-yl)thiazol-4-yl)-4-((2-(1,1-difluoroethyl)pyrimidin-4-yl)amino)pyridin-2-yl)acetamide]	≤ 10	≤ 10
CC(=O)Nc1cc(Nc2ccnc(C(C)(F)F)n2)c(-c2csc(C#N)n2)cn1 [Example 790, N-(5-(2-cyanothiazol-4-yl)-4-((2-(1,1-difluoroethyl)pyrimidin-4-yl)amino)pyridin-2-yl)acetamide]	≤ 10	≤ 10
CC(=O)Nc1cc(Nc2cc(C)nc(C(C)(F)F)n2)c(-c2cnc(CN3CCCC3)cn2)cn1 [Example 791, N-(4-((2-(1,1-difluoroethyl)-6-methylpyrimidin-4-yl)amino)-5-(5-(pyrrolidin-1-ylmethyl)pyrazin-2-yl)pyridin-2-yl)acetamide]	≤ 10	≤ 10
CC(=O)Nc1cc(Nc2cc(C)nc(C(C)(F)F)n2)c(-c2cnc(CN3CCN(C)CC3)cn2)cn1 [Example 792, N-(4-((2-(1,1-difluoroethyl)-6-methylpyrimidin-4-yl)amino)-5-(5-((4-methylpiperazin-1-yl)methyl)pyrazin-2-yl)pyridin-2-yl)acetamide]	≤ 10	10 to 100
CC(=O)Nc1cc(Nc2cc(C)nc(C(C)(F)F)n2)c(-c2cnc(CN3CCOCC3)cn2)cn1 [Example 793, N-(4-((2-(1,1-difluoroethyl)-6-methylpyrimidin-4-yl)amino)-5-(5-(morpholinomethyl)pyrazin-2-yl)pyridin-2-yl)acetamide]	≤ 10	≤ 10
CNC(=O)Nc1cc(Nc2ccnc(C(C)(F)F)n2)c(-c2cc3n(n2)CCN(C)C3)cn1 [Example 794, 1-(4-((2-(1,1-difluoroethyl)pyrimidin-4-yl)amino)-5-(5-methyl-4,5,6,7-tetrahydropyrazolo[1,5-a]pyrazin-2-yl)pyridin-2-yl)-3-methylurea]	≤ 10	≤ 10
CNC(=O)Nc1cc(Nc2ccnc(C(C)(F)F)n2)c(-c2nc3c(s2)CN(C)CC3)cn1 [Example 795, 1-(4-((2-(1,1-difluoroethyl)pyrimidin-4-yl)amino)-5-(5-methyl-4,5,6,7-tetrahydrothiazolo[5,4-c]pyridin-2-yl)pyridin-2-yl)-3-methylurea]	≤ 10	≤ 10
CC(=O)Nc1cc(Nc2ccnc(C(C)(F)F)n2)c(-c2nc3c(s2)CCN(C)C3)cn1 [Example 797, N-(4-((2-(1,1-difluoroethyl)pyrimidin-4-yl)amino)-5-(5-methyl-4,5,6,7-tetrahydrothiazolo[4,5-c]pyridin-2-yl)pyridin-2-yl)acetamide]	≤ 10	≤ 10
CCc1cc(Nc2cc(NC(C)=O)ncc2-c2ccncn2)nc(C(C)(C)F)n1 [Example 801, N-(4-((6-ethyl-2-(2-fluoropropan-2-yl)pyrimidin-4-yl)amino)-5-(pyrimidin-4-yl)pyridin-2-yl)acetamide]	≤ 10	≤ 10
